Experimental data as given in patent US20090142715A1, “LAMINATED RESIST USED FOR IMMERSION LITHOGRAPHY” (DAIKIN INDUSTRIES LTD., priority 2004, published 2009).
Read-outs that look alike come from different tables or passages of the source.

Assay: Measurement of pKa value of monomer having hydrophilic functional group Y by NaOH titration
Assay type: physicochemical
Settings: titration in water/acetone with NaOH, corrected by blank
Description: The method of measuring and calculating a pKa value is mentioned below using 1,1-bistrifluoromethyl-3-buten-1-ol:
In a water/acetone solution of 10/15 ml was poured 0.7865 g of CH2═CHCH2C(CF3)2OH, followed by stirring at room temperature. After it was confirmed that the solution was homogeneous, titration was carried out with 0.2 mole/L NaOH solution. A titration curve was obtained by adding the NaOH solution dropwise in increments of 0.15 ml and recording a pH value at every addition. An equivalence point was determined by an inflection point (maximum differential value of titration curve=dpH/dml) of the titration curve. In this case, the equivalence point was 14.5 ml. […] From a titration curve of water/acetone solution and aqueous solution which had been measured previously as a blank solution, a difference in a pH value derived from an electric potential difference between the solutions at titration of 7.25 ml was 1.29.
In the case of titration of 1.0865 g of CH2═CHCH2C(CF3)2OH by the same procedures as above, an equivalence point was 20.15 ml and a half of the equivalence point was 10.08 ml. A pH value at a half of the equivalence point was 10.78.
When the same procedures as above were carried out by changing the titration solution to about 0.05 mole/L NaOH, an equivalence point of 0.115 g of CH2═CHCH2C(CF3)2OH was 8.00 ml and a half of the equivalence point was 4.00 ml. A pH value at this time was 10.92.
With respect to the various fluorine-containing ethylenic monomers having OH group shown in Table 2, a pKa value was measured by the same procedures as above.

[1] = water/acetone solution, read-out: pKa

Compound	pKa [1]	pKa
O=C(O)C1(F)CC2C=CC1C2 (centres unmarked)	3.8	
C=C(F)C(F)(F)OC(F)(C(F)(F)F)C(F)(F)OC(F)(C(=O)O)C(F)(F)F (centres unmarked) [perfluoro-(9,9-dihydro-2,5-bistrifluoromethyl-3,6-dioxa-8-nonenoic acid)]		3.6

The remaining lines, values ahead:

pKa [1]	pKa	Compound
	12.6	1,1,9,9-tetrahydro-2,5-bistrifluoromethyl-3,6-dioxa-8-nonenol
	9.6	C=CCC(O)(C(F)(F)F)C(F)(F)F [1,1-bistrifluoromethyl-3-buten-1-ol]
3.4		C=C(F)C(=O)O [CH2═CF—COOH, α-fluoroacrylic acid]
